Measured values as given in article PMC6759758, “Cofactor Selectivity in Methylmalonyl Coenzyme A Mutase, a Model Cobamide-Dependent Enzyme” (mBio, 2019).
Where two headings read alike, the source gives them in different places.

Legend:
[1] = target: T1, SmMCM (Rhizobium meliloti, UniProt O86028); test: Filtration binding assay; design: species or system Sinorhizobium meliloti; details: 10 μM cobamide, 15 μM SmMCM
T1 construct: made in house; host or cells: E. coli BL21(DE3)pLysS
T1 sequence (O86028 2-712): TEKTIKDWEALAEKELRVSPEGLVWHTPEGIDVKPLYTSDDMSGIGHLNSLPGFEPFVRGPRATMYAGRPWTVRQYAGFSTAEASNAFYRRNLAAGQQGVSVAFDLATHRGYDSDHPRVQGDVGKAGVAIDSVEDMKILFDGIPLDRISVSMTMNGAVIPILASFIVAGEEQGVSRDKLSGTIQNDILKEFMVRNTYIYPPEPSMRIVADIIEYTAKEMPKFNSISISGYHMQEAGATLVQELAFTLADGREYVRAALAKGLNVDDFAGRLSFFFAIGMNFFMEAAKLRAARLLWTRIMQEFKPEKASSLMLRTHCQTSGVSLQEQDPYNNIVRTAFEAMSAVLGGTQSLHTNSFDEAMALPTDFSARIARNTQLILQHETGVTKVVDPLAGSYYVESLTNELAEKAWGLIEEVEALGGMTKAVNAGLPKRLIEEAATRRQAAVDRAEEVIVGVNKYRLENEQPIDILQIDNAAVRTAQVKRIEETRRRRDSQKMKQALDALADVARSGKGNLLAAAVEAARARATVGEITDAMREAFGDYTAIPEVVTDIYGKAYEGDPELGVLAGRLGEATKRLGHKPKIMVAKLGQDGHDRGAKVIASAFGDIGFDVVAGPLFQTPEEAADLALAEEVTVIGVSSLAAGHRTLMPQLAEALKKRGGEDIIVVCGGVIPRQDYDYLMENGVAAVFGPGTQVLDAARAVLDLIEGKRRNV
Experimental: Cobamides (10 μM) with and without MCM (15 μM) were incubated in 100 mM Tris, 50 mM phosphate, pH 7.5, at 30°C for 40 min, transferred to Nanosep 10K Omega centrifugal devices (Pall Corporation), and centrifuged for 5 min at 13,900 × g to separate unbound cobamides from enzyme-bound cobamides. The UV-Vis spectra of the filtrates were recorded on a BioTek Synergy 2 plate reader.

[2] = target: T2, SmMCM (methylmalonyl-CoA mutase from S. meliloti) (Rhizobium meliloti, UniProt O86028); test: biochemical; type: binding, Sinorhizobium meliloti; details: for binding to SmMCM detected by fluorescence quench (in words): low-micromolar / micromolar concentrations
T2 construct: made in house; host or cells: E. coli BL21(DE3)pLysS
T2 sequence (O86028 2-712): T1 sequence (O86028 2-712)
Experimental: (§1) All steps involving cobamides were conducted in the dark. The plate was centrifuged for 1 min at 3,800 rpm to level the surface of the liquid in each well. The plate was then incubated for 40 min at 30°C to allow binding, with a brief shaking step after 30 min. […] Following incubation, fluorescence emission at 340 nm (5-nm slit width) was measured upon excitation at 282 nm (5-nm slit width) using a Tecan Infinite M1000 Pro plate reader. Fluorescence, normalized to the initial value, was plotted as a function of cobamide concentration, and fitted to the following equation ([134]): F/F0=1+ΔFmax/F0([E]+[L]+Kd)−([E]+[L]+Kd)^2−4[E][L]/2[E] where F is fluorescence, F0 is initial fluorescence, [E] is total enzyme concentration, [L] is total ligand concentration, and Kd is the binding dissociation constant.

[3] = test system: MCM; design: method as in PMID 10563814; details: cited from earlier work
[4] = target: T3, EcMCM (E. coli MCM) (Escherichia coli, UniProt P27253); test: Fluorescence binding assay, EcMCM; details: read-out: Kd EcMCM; fitted curve, error = standard error of the curve fit
T3 construct: 6xHis (N); made in house; host or cells: E. coli BL21(DE3)
T3 sequence (P27253 whole entry): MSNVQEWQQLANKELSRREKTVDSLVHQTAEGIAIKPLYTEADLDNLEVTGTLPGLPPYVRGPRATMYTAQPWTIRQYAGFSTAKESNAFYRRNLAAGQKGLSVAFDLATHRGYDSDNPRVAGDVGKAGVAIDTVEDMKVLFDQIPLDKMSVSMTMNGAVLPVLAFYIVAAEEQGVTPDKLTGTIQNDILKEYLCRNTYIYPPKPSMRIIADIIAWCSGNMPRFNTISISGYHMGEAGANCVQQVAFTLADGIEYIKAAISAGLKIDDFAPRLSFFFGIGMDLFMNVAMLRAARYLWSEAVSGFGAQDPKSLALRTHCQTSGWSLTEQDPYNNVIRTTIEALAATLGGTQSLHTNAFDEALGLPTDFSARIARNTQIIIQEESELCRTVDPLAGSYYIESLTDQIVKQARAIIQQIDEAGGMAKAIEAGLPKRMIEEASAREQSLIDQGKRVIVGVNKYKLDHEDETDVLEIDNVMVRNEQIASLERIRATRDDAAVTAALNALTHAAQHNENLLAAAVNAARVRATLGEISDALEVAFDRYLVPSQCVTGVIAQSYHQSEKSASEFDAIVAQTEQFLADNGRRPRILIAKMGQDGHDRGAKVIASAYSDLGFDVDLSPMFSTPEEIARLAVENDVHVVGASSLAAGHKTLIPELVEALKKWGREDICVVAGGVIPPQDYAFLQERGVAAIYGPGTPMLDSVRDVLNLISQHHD
Experimental: as §1

[5] = test system: MCM; design: method as in PMID 14235521; details: cited from earlier work
[6] = target: T4, SmMCM (Sinorhizobium meliloti MCM) (Rhizobium meliloti, UniProt O86028); test: Thiokinase-coupled spectrophotometric MCM activity assay; type: biochemical; details: SmMCM 50 nM reconstituted with 2 μM cobamide; (R)-methylmalonyl-CoA to succinyl-CoA, steady state, 30°C
T4 construct: made in house; host or cells: E. coli BL21(DE3)pLysS
T4 sequence (O86028 2-712): T1 sequence (O86028 2-712)
Experimental: Final concentrations of reagents in the assays were as follows: Tris-phosphate buffer (pH 7.5), 100 mM Tris, 50 mM phosphate; dithionitrobenzoate (DTNB), 400 μM; ADP, 1 mM; MgCl2, 10 mM; (R)-methylmalonyl-CoA, 0 to 4 mM; thiokinase, 5 μM; MCM, 50 nM; and cobamides, 2 μM.
Three separate mixes were prepared, all in 1× Tris-phosphate buffer: an assay mix containing DTNB, ADP, and MgCl2; a substrate mix containing (R)-methylmalonyl-CoA; and an enzyme mix containing thiokinase, MCM, and cobamides. All steps involving cobamides were conducted in the dark. The assay and enzyme mixes were prepared as a master mix and aliquoted into 96-well plates; substrate mixes were prepared in individual wells, in triplicate. All components were incubated at 30°C for 40 min to equilibrate temperature and allow prebinding of cobamides and MCM. After incubation, one replicate at a time, the substrate mix was added to the assay mix, followed by the enzyme mix. Absorbance at 412 nm (A412) was recorded immediately after addition of enzyme and for 1 to 3 min, every 3 s, on a BioTek Synergy 2 plate reader. The increase in A412 in reaction mixtures lacking substrate was subtracted from all readings, to account for reactivity of DTNB with thiols on protein surfaces.

[7] = target: VpMCM (V. parvula MCM) (Veillonella parvula, UniProt A0A124EFR6); test: Fluorescence binding assay, VpMCM; details: fitted curve, error = standard error of the curve fit; equimolar α and β subunits
Chain of VpMCM (V. parvula MCM) (A0A124EFR6 entry or part of it): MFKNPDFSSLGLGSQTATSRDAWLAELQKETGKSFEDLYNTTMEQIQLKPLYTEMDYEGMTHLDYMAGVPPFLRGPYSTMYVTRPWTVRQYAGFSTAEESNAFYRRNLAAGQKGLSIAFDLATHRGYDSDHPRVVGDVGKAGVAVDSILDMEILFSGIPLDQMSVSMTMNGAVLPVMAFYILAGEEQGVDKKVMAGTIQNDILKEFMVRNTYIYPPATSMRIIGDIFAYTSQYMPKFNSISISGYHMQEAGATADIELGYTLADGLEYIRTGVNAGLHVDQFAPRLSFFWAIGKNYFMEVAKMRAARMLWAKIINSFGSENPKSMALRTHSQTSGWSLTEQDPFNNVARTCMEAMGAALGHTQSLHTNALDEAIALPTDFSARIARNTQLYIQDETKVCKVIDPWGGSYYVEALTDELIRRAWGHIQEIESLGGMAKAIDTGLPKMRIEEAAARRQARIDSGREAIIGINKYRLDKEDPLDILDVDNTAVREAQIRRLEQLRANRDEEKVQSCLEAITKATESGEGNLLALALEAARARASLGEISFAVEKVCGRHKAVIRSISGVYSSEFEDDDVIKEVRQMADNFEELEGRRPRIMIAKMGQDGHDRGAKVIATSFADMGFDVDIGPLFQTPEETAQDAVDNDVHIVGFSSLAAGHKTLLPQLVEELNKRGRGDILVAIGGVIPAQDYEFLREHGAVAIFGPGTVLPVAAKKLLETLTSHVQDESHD
Experimental: The α subunit of VpMCM (encoded by Vpar_RS09005) was expressed with an N-terminal 6×His tag from the pET-Duet expression vector in E. coli BL21(DE3). Protein expression was induced with 520 μM IPTG for 6 h at 30°C. The protein was batch purified by nickel affinity and subsequently purified by FPLC using a HiTrapQ column with an NaCl gradient from 50 to 500 mM in […], pH 8.0, 10% glycerol. The β subunit of VpMCM (encoded by Vpar_RS09000) was expressed separately with an N-terminal 6×His tag from the pET-Duet expression vector in E. coli BL21(DE3). […] Purified protein was dialyzed into 25 mM Tris-HCl, pH 8.0, 300 mM NaCl, 10% glycerol, and 1 mM β-mercaptoethanol. Concentration of pure α and β subunits (Fig. S7) was determined by absorbance at 280 nm (A280) using the theoretically calculated extinction coefficients 75,290 M^−1 cm^−1 and 74,260 M^−1 cm^−1, respectively ([125]). Equimolar amounts of α and β subunits were combined during the setup of fluorescence binding assays.
as §1

[8] = test system: P. shermanii MCM; design: method as in PMID 11031263; details: cited from earlier work

| Compound | binding to SmMCM in filtration-based assay [1] | binding to SmMCM detected by fluorescence quench (in words) [2] | Kd [4] [nM] | MCM activity in S. meliloti bacteroids [5] | Kd [7] [nM] | also measured |
| --- | --- | --- | --- | --- | --- | --- |
| 5-Hydroxybenzimidazolylcobamide [Ado[5-OHBza]Cba] | little to no binding | no binding | – | – | – | – |
| C/C1=C2/[N-][C@H]([C@H](CC(N)=O)[C@@]2(C)CCC(=O)NC[C@@H](C)O)[C@]2(C)N=C(/C(C)=C3N=C(/C=C4N=C1[C@@H](CCC(N)=O)C\4(C)C)[C@@H](CCC(N)=O)[C@]\3(C)CC(N)=O)[C@@H](CCC(N)=O)[C@]2(C)CC(N)=O.[CH2-][C@H]1O[C@@H](n2cnc3c(N)ncnc32)[C@H](O)[C@@H]1O.[Co+3] [Ado-cobinamide, adenosylcobinamide, reference compound] | – | – | – | – | – | Kd [2]: 800 ± 200 nM; support of MCM activity in vitro [3]: does not support MCM activity |
| C/C1=C2/[N-][C@H]([C@H](CC(N)=O)[C@@]2(C)CCC(=O)NC[C@@H](C)OP(=O)([O-])O[C@H]2[C@@H](O)[C@@H](n3cnc4cc(C)c(C)cc43)O[C@@H]2CO)[C@]2(C)N=C(/C(C)=C3N=C(/C=C4N=C1[C@@H](CCC(N)=O)C\4(C)C)[C@@H](CCC(N)=O)[C@]\3(C)CC(N)=O)[C@@H](CCC(N)=O)[C@]2(C)CC(N)=O.[CH2-][C@H]1O[C@@H](n2cnc3c(N)ncnc32)[C@H](O)[C@@H]1O.[Co+3] [AdoCbl, adenosylcobalamin, reference compound] | – | – | 600 ± 100 | highest | 2800 ± 600 | kcat [6]: 26 ± 1 s⁻¹; Kd ([2]; SmMCM 0.2 μM, pH 7.5, 30°C, average and standard deviation for three or more independent experiments, n. d. = binding too weak to determine Kd): 30 ± 20 nM |
| C/C1=C2/[N-][C@H]([C@H](CC(N)=O)[C@@]2(C)CCC(=O)NC[C@@H](C)OP(=O)([O-])O[C@H]2[C@@H](O)[C@@H](n3cnc4ncnc(N)c43)O[C@@H]2CO)[C@]2(C)N=C(/C(C)=C3N=C(/C=C4N=C1[C@@H](CCC(N)=O)C\4(C)C)[C@@H](CCC(N)=O)[C@]\3(C)CC(N)=O)[C@@H](CCC(N)=O)[C@]2(C)CC(N)=O.[CH2-][C@H]1O[C@@H](n2cnc3c(N)ncnc32)[C@H](O)[C@@H]1O.[Co+3] [Ado[Ade]Cba, Adeninylcobamide] | did not bind to any significant extent | did not bind to any significant extent | 1600 ± 400 | absent | 9000 ± 4000 | – |
| C/C1=C2/[N-][C@H]([C@H](CC(N)=O)[C@@]2(C)CCC(=O)NC[C@@H](C)OP(=O)([O-])OP(=O)([O-])OC[C@H]2O[C@@H](n3cnc4c(=O)[nH]c(N)nc43)[C@H](O)[C@@H]2O)[C@]2(C)N=C(/C(C)=C3N=C(/C=C4N=C1[C@@H](CCC(N)=O)C\4(C)C)[C@@H](CCC(N)=O)[C@]\3(C)CC(N)=O)[C@@H](CCC(N)=O)[C@]2(C)CC(N)=O.[CH2-][C@H]1O[C@@H](n2cnc3c(N)ncnc32)[C@H](O)[C@@H]1O.[Co] [adenosylcobinamide-GDP] | – | – | – | – | – | support of P. shermanii MCM activity compared to AdoCbl [8]: only slight catalytic impairment |
